These results are taken from patent US20250263408A1 (Uniquest Pty Ltd, priority 2022, published 2025).

For orientation: EC50 means the concentration needed to bring the measured effect to its halfway point.

The subject of experiment [1] is Ba/F3-WT (wild type) cells. The experiment in a line: Ba/F3 Proliferation Assay, Ba/F3-WT (wild type) cells with mIL-3 (Resazurin). Format: cell-based. The settings on record: Mus musculus, BaF3, 48 h, Ba/F3-WT cells +mIL-3, 48-hour incubation. (Resazurin is reduced to fluorescent resorufin, in cell work by metabolically active cells.)
A further experiment concerns the target T1, Ba/F3-Syk cells (Homo sapiens, UniProt P43405).
T1 construct: fused on or other part: Possible but unprinted fusion partner: TEL (ETV6), the usual partner for Ba/F3 lines transformed by Syk; Nothing on a partner is printed
Nature of the experiment: Ba/F3 Proliferation Assay, Ba/F3-Syk cells (Resazurin). The experiment is classed as cell-based. To be noted: 48-hour incubation.

For the molecule `CC(C)(C)n1cc(-c2cc(OC[C@@H]3CNCC4(CC4)O3)c3cccnc3c2)cn1` [Compound 3.20, 7-(1-tert-butyl-1H-pyrazol-4-yl)-5-{[(5S)-4-oxa-7-azaspiro[2.5]octan-5-yl]methoxy}quinoline], the results for the EC50 (in experiment [1]; at Ba/F3-Syk cells) were 1960 nM and 35.5 nM, respectively.
Consider `CC(C)n1cc(-c2cc(OC[C@@H]3CNCC4(CC4)O3)c3cccnc3c2)cn1` [Compound 3.21, 5-{[(SS)-4-oxa-7-azaspiro[2.5]octan-5-yl]methoxy}-7-[1-(propan-2-yl)-1H-pyrazol-4-yl]quinoline], for which the EC50 was 614 nM in experiment [1] and 13.1 nM on Ba/F3-Syk cells.
For `Cn1ccc(-c2cc(OC[C@@H]3CNCCCO3)c3cccnc3c2)c1` [Compound 3.22, 7-(1-methyl-1H-pyrrol-3-yl)-5-{[(2S)-1,4-oxazepan-2-yl]methoxy}quinoline] the same measures were 9680 nM and 99 nM.
With `c1cnc2cc(-c3cc4n(c3)CCC4)cc(OC[C@@H]3CNCCO3)c2c1` [Compound 4, 7-(2,3-dihydro-1H-pyrrolizin-6-yl)-5-{[(2S)-morpholin-2-yl]methoxy}quinoline], the EC50 turned out to be 7210 nM in experiment [1] and 87.7 nM on Ba/F3-Syk cells.
`Cn1cc(-c2cc(OC[C@@H]3CNCCO3)c3cncnc3c2)cn1` [Compound 4.1, 7-(1-methyl-1H-pyrazol-4-yl)-5-{[(2S)-morpholin-2-yl]methoxy} quinazoline]: the EC50 is 7430 nM in experiment [1] and 2320 nM on Ba/F3-Syk cells.
For `CC1(C)CNC[C@@H](COc2cc(-c3cnn(C(C)(C)C)c3)cc3ncncc23)O1` [Compound 4.2, 7-(1-tert-butyl-1H-pyrazol-4-yl)-5-{[(2S)-6,6-dimethyl-morpholin-2-yl]methoxy} quinazoline] the same measures were over 10000 nM and 171 nM.
For `Cn1ccc(-c2cc(OC[C@@H]3CNCCO3)c3cncnc3c2)c1` [Compound 4.3, 7-(1-methyl-1H-pyrrol-3-yl)-5-{[(2S)-morpholin-2-yl]methoxy} quinazoline] the same measures were 5010 nM and 586 nM.
For `CCn1ccc(-c2cc3ncccc3c(OC[C@@H]3CNCCO3)n2)c1` [Compound 6.1, 7-(1-ethyl-1H-pyrrol-3-yl)-5-{[(2S)-morpholin-2-yl]methoxy}-1,6-naphthyridine] the same measures were 2660 nM and 38.8 nM.
With `c1cnc2cc(-c3ccn(C4CCC4)c3)nc(OC[C@@H]3CNCCO3)c2c1` [Compound 6.3, 7-(1-cyclobutyl-1H-pyrrol-3-yl)-5-{[(2S)-morpholin-2-yl]methoxy}-1,6-naphthyridine], the figures for the EC50 (in experiment [1]; on Ba/F3-Syk cells) were 2460 nM and 51.9 nM, respectively.
For `c1cnc2cc(-c3ccn(CC4CC4)c3)nc(OC[C@@H]3CNCCO3)c2c1` [Compound 6.4, 7-[1-(cyclopropylmethyl)-1H-pyrrol-3-yl]-5-{[(2S)-morpholin-2-yl]methoxy}-1,6-naphthyridine] the same measures were 2650 nM and 74.8 nM.
For `FC(F)Cn1cc(-c2cc3ncccc3c(OC[C@@H]3CNCCO3)n2)cn1` [Compound 6.6, 7-[1-(2,2-difluoroethyl)-1H-pyrazol-4-yl]-5-{[(2S)-morpholin-2-yl]methoxy}-1,6-naphthyridine] the same measures were 1920 nM and 81.9 nM.
For the molecule `F/C=C\n1cc(-c2cc3ncccc3c(OC[C@@H]3CNCCO3)n2)cn1` [Compound 6.7, 7-{1-[(1Z)-2-fluoroethenyl]-1H-pyrazol-4-yl}-5-{[(2S)-morpholin-2-yl]methoxy}-1,6-naphthyridine], the concentration giving a half-maximal response (EC50) in experiment [1] amounted to 3400 nM; on Ba/F3-Syk cells, 113 nM.
For `F/C=C/n1cc(-c2cc3ncccc3c(OC[C@@H]3CNCCO3)n2)cn1` [Compound 6.8, 7-{1-[(1E)-2-fluoroethenyl]-1H-pyrazol-4-yl}-5-{[(2S)-morpholin-2-yl]methoxy}-1,6-naphthyridine] the same measures were 4880 nM and 181 nM.
For `c1cnc2cc(-c3cnn(CC4CC4)c3)nc(OC[C@@H]3CNCCO3)c2c1` [Compound 6.12, 7-[1-(cyclopropylmethyl)-1H-pyrazol-4-yl]-5-{[(2S)-morpholin-2-yl]methoxy}-1,6-naphthyridine] the same measures were 994 nM and 66.7 nM.
For the molecule `CC1(C)CNC[C@@H](COc2nc(-c3ccn(C4CCC4)c3)cc3ncccc23)O1` [Compound 6.14, 7-(1-cyclobutyl-1H-pyrrol-3-yl)-5-{[(2S)-6,6-dimethylmorpholin-2-yl]methoxy}-1,6-naphthyridine], the half-maximal effective concentration (EC50) worked out at 1800 nM in experiment [1] and 14.3 nM on Ba/F3-Syk cells.
For `CC1(C)CNC[C@@H](COc2nc(-c3ccn(CC4CC4)c3)cc3ncccc23)O1` [Compound 6.15, 7-[1-(cyclopropylmethyl)-1H-pyrrol-3-yl]-5-{[(2S)-6,6-dimethylmorpholin-2-yl]methoxy}-1,6-naphthyridine] the same measures were 2340 nM and 20.3 nM.
For `FC1(F)CC1n1ccc(-c2cc3ncccc3c(OC[C@@H]3CNCCO3)n2)c1` (stereo partly drawn) [Compound 6.17, 7-[1-(2,2-difluorocyclopropyl)-1H-pyrrol-3-yl]-5-{[(2S)-morpholin-2-yl]methoxy}-1,6-naphthyridine] the same measures were 2400 nM and 79.9 nM.
For the molecule `CC1(C)CNC[C@@H](COc2nc(-c3ccn(C4CC4(F)F)c3)cc3ncccc23)O1` (stereo partly drawn) [Compound 6.18, 7-[1-(2,2-difluorocyclopropyl)-1H-pyrrol-3-yl]-5-{[(2S)-6,6-dimethylmorpholin-2-yl]methoxy}-1,6-naphthyridine], the EC50 in experiment [1] came to 3290 nM; on Ba/F3-Syk cells, 36.2 nM.
For `CC1(C)CNC[C@@H](COc2nc(-c3cnn(CC4CC4)c3)cc3ncccc23)O1` [Compound 6.21, 7-[1-(cyclopropylmethyl)-1H-pyrazol-4-yl]-5-{[(2S)-6,6-dimethylmorpholin-2-yl]methoxy}-1,6-naphthyridine] the same measures were 1510 nM and 12.6 nM.
Turning to `CC(C)n1ccc(-c2cc3ncccc3c(OC[C@@H]3CNCCCO3)n2)c1` [Compound 6.24, 5-{[(2S)-1,4-oxazepan-2-yl]methoxy}-7-[1-(propan-2-yl)-1H-pyrrol-3-yl]-1,6-naphthyridine], the half-maximal effective concentration (EC50) in experiment [1] worked out at 2820 nM; on Ba/F3-Syk cells, 16.4 nM.
`FC(F)Cn1cc(-c2cc3ncccc3c(OC[C@@H]3CNCCCO3)n2)cn1` [Compound 6.27, 7-[1-(2,2-difluoroethyl)-1H-pyrazol-4-yl]-5-{[(2S)-1,4-oxazepan-2-yl]methoxy}-1,6-naphthyridine]: the half-maximal effective concentration (EC50) was determined as 5590 nM in experiment [1] and 52.2 nM at Ba/F3-Syk cells.
In the case of `COCCn1ccc(-c2cc3ncccc3c(O[C@H](C)[C@@H]3CNCCO3)n2)c1` [Compound 6.29, 7-[1-(2-methoxyethyl)-1H-pyrrol-3-yl]-5-[(1R)-1-[(2S)-morpholin-2-yl]ethoxy]-1,6-naphthyridine], the concentration for a half-maximal effect (EC50) in experiment [1] came to 1440 nM; at Ba/F3-Syk cells, 30.7 nM.
For `CCn1ccc(-c2cc3ncccc3c(O[C@H](C)[C@@H]3CNCCO3)n2)c1` [Compound 6.31, 7-(1-ethyl-1H-pyrrol-3-yl)-5-[(1R)-1-[(2S)-morpholin-2-yl]ethoxy]-1,6-naphthyridine] the same measures were 3340 nM and 49.4 nM.
